Where a name gives a salt, the structure may show the parent alone. Read-outs that look alike come from different tables or passages of the source.
What was measured:
[1] = tested on: proliferating TG1 GSCs; experiment: ATP-Glo dose-response, proliferating TG1 GSCs; assay type: cell-based, human
Method: (§1) The EC50 value was determined for each compound by fitting the data points according to the following equation: y=Smax+Smin*(x*1/EC50)^n/1+(x*1/EC50)^n where y represents the expected response, x is the chemical compound concentration, S max and S min are the maximum and minimum responses recorded, respectively and n is the Hill coefficient. Curve fitting was performed using Microsoft Excel Solver component.
(§2) Proliferating or quiescent TG1 cells were seeded in 50 μL of their respective media (30 000 and 40 000 viable cells/well, respectively) into 96-well opaque bottom plates (Greiner, Courtaboeuf, France). Compound treatment was performed by adding 50 μL of compound solutions (in the presence of 2% DMSO in culture medium). […] All compounds were tested in triplicate in each experiment. Independent experiments were performed at least twice for almost all of the compounds.

[2] = tested on: proliferating TG16 GSCs; experiment: ATP-Glo dose-response, proliferating TG16 GSCs; assay type: cell-based, human; settings: Homo sapiens; ATP Glo readout, 24 h treatment; read-out: P TG16 GSCs EC50
Method: as §1
(§3) Similar dose response curves were performed using GSCs isolated from GBM of two other patients (TG16 and OB1 GSCs) grown under proliferating and quiescent conditions.

[3] = tested on: quiescent TG1 GSCs; settings: primary screen, 50 μM, 24 h
How it was run: (§4)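 Cells seeded at 30 000 (proliferating) or 40 000 (quiescent) viable cells/well and treated with compound at 50 μM final, 1% DMSO, single test; hits retested in duplicate at 50 and 5 μM. ATP measured by luminescence, as percent of the mean signal of DMSO control wells.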

[4] = tested on: proliferating OB1 GSCs; experiment: ATP-Glo dose-response, proliferating OB1 GSCs; assay type: cell-based; settings: Homo sapiens; ATP Glo readout, 24 h treatment; read-out: P OB1 GSCs EC50
Method: as §1, §3

[5] = tested on: primary astrocytes (HA cells); experiment: ATP-Glo dose-response, primary astrocytes; assay type: cell-based, human; settings: Homo sapiens, Astrocyte; for EC50: ATP Glo readout, 24 h treatment
[6] = tested on: quiescent OB1 GSCs; experiment: ATP-Glo dose-response, quiescent OB1 GSCs; assay type: cell-based, human; settings: Homo sapiens; ATP Glo readout, 24 h treatment; read-out: Q OB1 GSCs EC50
Method: as §1, §3

[7] = tested on: quiescent TG1 cells; experiment: Cell viability, trypan blue staining, quiescent TG1 cells; assay type: cell-based, human; settings: quiescent TG1 GSCs, 10 μM, 24 hours
Method: Cell mortality was evaluated by trypan blue staining (0.1% (v/v)).

[8] = tested on: HEK 293 cells; experiment: ATP-Glo dose-response, HEK 293 cells; assay type: cell-based, human; settings: Homo sapiens, HEK293; ATP Glo readout, 24 h treatment
Method: as §1, with “component. […]” for “component.”

[9] = tested on: quiescent TG16 GSCs; experiment: ATP-Glo dose-response, quiescent TG16 GSCs; assay type: cell-based, human; settings: Homo sapiens; ATP Glo readout, 24 h treatment; read-out: Q TG16 GSCs EC50
Method: as §1, §3

[10] = tested on: fetal neural stem cells (f-NSC); experiment: ATP-Glo dose-response, fetal neural stem cells; assay type: cell-based; settings: Homo sapiens, Neural stem cell; ATP Glo readout, 24 h treatment
[11] = tested on: quiescent TG1 GSCs; experiment: ATP-Glo dose-response, quiescent TG1 GSCs; assay type: cell-based, human
Method: as §1, §2

[12] = Solubility measurements; assay type: physicochemical; settings: data not shown
[13] = tested on: proliferating TG1 GSCs; settings: primary screen, 50 μM, 24 h
How it was run: as §4

[14] = tested on: Astrocytes; parameters: method as in PMID 23039130; settings: literature, ref [104]; cited from earlier work
[15] = tested on: human colon cancer cell line HT29; parameters: method as in PMID 1888153; settings: ref [58], read-out: EC50, decrease of proliferation; cited from earlier work
[16] = Homo sapiens, 24 h, ATP Glo readout, 24 h treatment, n = 3, read-out: P TG1 GSCs EC50
[17] = Homo sapiens, 24 h, ATP Glo readout, 24 h treatment, n = 3, read-out: Q TG1 GSCs EC50

Question: Which EC50 [1, 16] does the source give for `CC(=O)Oc1ccc(C(c2ccc(OC(C)=O)cc2)c2ccccn2)cc1` [Compound 1, 4,4'-diacetoxydiphenyl-2-pyridyl-methane] here?
Answer: > 100 µM

Question: And the EC50 [2]?
Answer: > 100 µM

Question: And the “Activity on quiescent TG1 GSCs (hit compounds reducing ATP levels)” value [3]?
Answer: yes

Question: What about the EC50 [4] of the same compound?
Answer: > 100 µM

Question: What about the EC50 [5] of the same compound?
Answer: 0.6 ± 0.3 µM

Question: What about the Emax ([5]; HA cells, not due to cell death, read-out: maximum effect: reduction of ATP levels) of the same compound?
Answer: 30%

Question: What about the EC50 [6] of the same compound?
Answer: 0.5 ± 0.1 µM

Question: What about the “cell viability (trypan blue and 7-AAD staining)” value [7] of the same compound?
Answer: resulted from cell death

Question: And the EC50 [8]?
Answer: > 100 µM

Question: And the EC50 [9]?
Answer: 1.3 ± 0.1 µM

Question: And the EC50 [10]?
Answer: > 100 µM

Question: And the EC50 ([11]; ATP Glo readout, 24 h treatment, n = 3, listed as Bisacodyl, read-out: Q TG1 GSCs EC50)?
Answer: 1.07 ± 0.04 µM

Question: And the EC50 [11, 17]?
Answer: ~1 µM

Question: For `c1ccc(C(c2ccccc2)c2ccccn2)cc1` [Compound 6, Diphenyl-2-pyridylmethane], which EC50 ([1]; Homo sapiens, 24 h, SAR study, ATP-Glo cell survival assay, 24 h, triplicate, read-out: Proliferating TG1 GSCs EC50) is on record?
Answer: > 100 µM

Question: And the solubility [12]?
Answer: not due to reduced solubility

Question: What about the EC50 ([11]; Homo sapiens, 24 h, SAR study, ATP-Glo cell survival assay, 24 h, triplicate, read-out: Quiescent TG1 GSCs EC50) of the same compound?
Answer: 84.8 ± 4.1 µM

Question: What does the source list for `C=C1C(=O)O[C@H]2[C@H]1CC/C(C)=C/CC[C@@]1(C)O[C@@H]21` [Parthenolide]?
Answer: EC50 [1, 16]: 15 ± 2 µM; EC50 [2]: 10 ± 2 µM; Activity on proliferating TG1 GSCs (hit compounds reducing ATP levels) [13]: yes; Activity on quiescent TG1 GSCs (hit compounds reducing ATP levels) [3]: yes; EC50 [4]: 18 ± 4 µM; EC50 [5]: 59 ± 4 µM; EC50 [6]: 35 ± 11 µM; EC50 [14]: 186 ± 10 µM; EC50 [8]: 13 ± 5 µM; EC50 [10]: 8.4 ± 0.2 µM; EC50 [11, 17]: 48 ± 6 µM

Question: What does the source list for `C1CCC(C(CC2CCCCN2)C2CCCCC2)CC1` (stereo not drawn) [Perhexilin maleate]?
Answer: EC50 [1, 16]: 10 ± 1 µM; EC50 [2]: 11 ± 1 µM; Activity on proliferating TG1 GSCs (hit compounds reducing ATP levels) [13]: yes; Activity on quiescent TG1 GSCs (hit compounds reducing ATP levels) [3]: yes; EC50 [4]: 12 ± 1 µM; EC50 [5]: 12 ± 2 µM; EC50 [6]: 22 ± 4 µM; EC50 [8]: 12 ± 1 µM; EC50 [9]: 21 ± 4 µM; EC50 [15]: ~10 µM; EC50 [10]: 3 ± 1 µM; EC50 [11, 17]: 14 ± 3 µM

Question: For `CC(C)(C)c1ccc(C(O)CCCN2CCC(C(O)(c3ccccc3)c3ccccc3)CC2)cc1` (stereo not drawn) [Terfenadine], which EC50 ([1]; ATP Glo readout, 24 h treatment, n = 3, read-out: P TG1 GSCs EC50) is on record?
Answer: 8 ± 1 µM

Question: What about the EC50 [1, 16] of the same compound?
Answer: ~10 µM

Question: And the EC50 [2]?
Answer: 9 ± 1 µM

Question: And the “Activity on proliferating TG1 GSCs (hit compounds reducing ATP levels)” value [13]?
Answer: yes

Question: What about the “Activity on quiescent TG1 GSCs (hit compounds reducing ATP levels)” value [3] of the same compound?
Answer: yes

Question: What about the EC50 [4] of the same compound?
Answer: 10 ± 2 µM

Question: And the EC50 [5]?
Answer: 9 ± 2 µM

Question: And the EC50 [6]?
Answer: 22 ± 4 µM

Question: What about the EC50 [8] of the same compound?
Answer: 8 ± 1 µM

Question: And the EC50 [9]?
Answer: 24 ± 6 µM

Question: And the EC50 [10]?
Answer: 4 ± 1 µM

Question: What about the EC50 [11, 17] of the same compound?
Answer: 17 ± 1 µM
